Reference: patent US20080275105A1, “Selective Muscle Relaxant and Pharmaceutical Compositions” (UNIVERSIDADE FEDERAL DO RIO DE JANEIROUFRJ, priority 2004, published 2008)

How the values were obtained:
Format in all cases: cell-based
[1] = test system: left ventricle bundles of a rat heart; test: Isometric tension in ventricular bundles
Description: (§1) Once the experiments have been carried out, the findings were subject to statistical analyses being expressed in average ±SEM as a percentage of the control value, and graphs were drawn up using the Sigma Plot 5.0 program to represent the data obtained. For the statistical analysis of the effects on the different muscle tissues, the difference was assessed among the concentrations of the same derivative, using the “t” Student test. In order to ascertain the difference among the derivatives, the one-way ANOVA test was used. The differences were considered as significant for p<0.05. The Cl50 was expressed as an average ±SEM of the values obtained for each experiment through non-linear regression based on the y=yo+ae^−bx equation.
(§2) After anesthesia with ethyl ether, male Wistar rats weighing between 240-280 grams were sacrificed through cervical dislocation. The heart was removed rapidly and the papillary muscle and the ventricular bundles were dissected in Tyrode's solution, whose composition is given in Table 2 below, at room temperature. The muscles were placed in vertical chambers with a capacity of 10 mL and fixed at their extremities: the lower portion to a hook located in the stimulation electrode fixation rod and the upper portion connected to a power transducer (Grass FT03) for recording the muscle twitches.
(§3) The muscles were stimulated electrically with supra-maximum voltage (50-60 V) through a stimulator (Grass S88) at a frequency of 1.0 Hz. The signals captured by the transducer were amplified (Cyberamp 380, Axon Instruments) and the isometric tension was digitized (Digidata 1322A, Axon Instruments) and stored on a computer. The screening and analysis of the experiment was handled through the Axoscope 8.0 program (Axon Instruments) (Sudo & cols., 2001). The chamber solution was bubbled continuously with a carbogenic mixture (95% O2/5% CO2) and kept at a temperature of 37° C.
(§4) After the stabilization of the muscle twitches (approximately 30 min) the records were carried out in the absence (control) and presence of rising concentrations (10 to 100 μM) of the different L294 analogs, diluted in DMSO. The records were carried out in pairs (two papillary and two ventricle) thus allowing the control experiments to be carried out in one of the pairs, meaning with rising quantities of DMSO equivalent to those used to dilute the substances. The reversibility of the effect of the substances was investigated at the end of each experiment, noting the recovery of the muscle twitches after bathing the preparation with Tyrode's solution.

[2] = test system: tracheal rings of a rat; test: Acetylcholine-induced contracture of trachea rings; conditions: acetylcholine 10 μM; for muscle relaxation effect on trachea rings: cumulative concentrations up to 200 μM, result in words
Description: A preparation of trachea rings is used for observing the probable action of these powerful vasodilators in other smooth musculature tissues. FIG. 12 presents the typical record of the acetylcholine-induced trachea rings contracture (Ach, 10 μM) followed by exposure to rising cumulative concentrations of the L785 derivative up to 200 μM. A dose-dependent reduction may be noted in the amplitude of the acetylcholine-induced contracture.
The same protocol was used for the L786 derivative and the solvent (FIG. 13).

[3] = test system: rat aorta rings with preserved endothelium; test: KCl-induced contracture in aorta rings with preserved endothelium; conditions: KCl 40 mM; for amplitude of the KCl contracture, with endothelium: 200 μM stated for L790; for IC50: Rattus norvegicus, with endothelium, six experiments, read-out: CI50 (μM) Average ± SEM
Description: as §1
Male Wistar rats weighing between 240-280 grams were sacrificed through dislocation of the cervical column under anesthesia using ethyl ether. The aorta artery was removed and transferred to a Petri dish containing modified Tyrode's solution whose composition is described in Table 3 below, where the vessel was cleaned and the connective tissue was removed. According to the scheduled Experiment Protocol, the vascular endothelium was removed mechanically with the assistance of a polyethylene rod. The artery was divided into rings with a width of 2-3 mm. Two hooks were placed in the wall of the vessel in order to record the tension generated by the muscle in a transversal direction. To do so, one of the hooks was tied to a fixed point in the chamber and the other to a power transducer (FT 03) for recording the isometric tension. The tension generated by the muscle was transformed into a digitized electric signal (Digidata 1322A) and stored in a computer for subsequent analysis using the Axoscope 8.0 program (Axon Instruments, Inc). The chamber was filled with Krebs solution, oxygenated and kept at a temperature of 37° C.
After stabilizing the preparation, approximately 120 minutes, the Experiment Protocol began. Initially, in order to identify the presence or absence of the vascular endothelium, the preparation was exposed to phenylephrine (10 μM) and when the contracture in response to this substance was stabilized, acetylcholine (10 μM) was added to the nutrient solution. Relaxation of over 80% in response to the acetylcholine indicated the full integrity of the endothelium and relaxation of less than 10% indicated the absence of endothelium. The tissues in which the relaxation intensity fell between >10% and <80% were discarded. In order to investigate the vasodilator effect of the different L294 analogs, they were added to the experiment chambers in rising concentration after the contracture stabilization of the vessel induced by phenylephrine. The tension registered after treatment with each of the L294 analog concentrations was normalized as a function of the amplitude of the contracture triggered by phenylephrine. For the purpose of comparing the potency of some of the L294 analogs, the Cl50 was determined for each experiment using the y=yo+ae^−bx equation and their mean was used for the statistical analysis.
The effects of the L294 analogs were investigated in rat aorta rings with preserved endothelium whose contracture was induced by increasing the extra-cellular concentration of KCl to 40 mM. Of the seven L294 analogs, this test was carried out only with the L785, L786, L789 and L790, in this group of experiments.

[4] = test system: rat papillary muscle; test: Isometric tension (electrically stimulated twitches) in papillary muscle; conditions: 10 to 100 μM; not significant
Description: as §1, §2, §3, §4

Row | IC50 [3] | Structure (SMILES) | muscle twitches / contractility in ventricular bundles ([1]; 100 μM) | amplitude of the acetylcholine-induced contracture of trachea rings ([2]; 200 μM) | muscle relaxation effect on trachea rings [2] | amplitude of the KCl contracture, with endothelium [3] | muscular response in ventricular bundles ([1]; concentration not given, alterations not greater than 10%) | maximum alterations to the papillary muscle twitches [4]
1 | 127 ± 13.7 µM | O=C(c1ccc2c(c1)OCO2)N(Cc1ccccc1)/N=C/c1cccs1 [L786, 1,3-Benzodioxol-5-carboxylic acid, N-benzyl-N′-[1-thiophene-2-yl-meth-(E)-ylidene]-hydrazide] | 79.9±10.6 % of the control | 25.3±12.1 % of the control | The same effect was not observed | 51.1±2.8 % of the control | – | –
2 | 34.1 ± 6.3 µM | CN(/N=C/c1cccs1)C(=O)c1ccc2c(c1)OCO2 [L785, 1,3-Benzodioxol-5-carboxylic acid, N-methyl-N′-[1-thiophene-2-yl-meth-(E)-ylidene]-hydrazide] | – | – | significant dose-dependent muscle relaxation effect | 8.1±3.8 % of the control | 96.5±3.8 % of the control | 86.5±4.0 % of the control
